Experimental data reported in US20250042916A1 (ACONCAGUA BIO, INC., priority 2023, published 2025).

Legend:
[1] = biological target: human calcitonin receptor (CTR) and RAMP3 (AMY3) in COS-7 cells (Homo sapiens, UniProt O60896+P30988); assay: Amylin Receptor cAMP Assay I; type: cell-based; conditions: values marked *: Amylin Receptor cAMP Assay I; COS-7/AMY3 cells; read-out: Amylin Receptor cAMP Stimulation Activity: EC50
How it was run: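 COS-7 cells stably co-expressing human CTR and RAMP3 (AMY3) were stimulated with serially diluted compounds (4-fold) in DPBS with 0.5 mM IBMX and 0.1% BSA for 30 min at 37 °C, 1000 cells/well. cAMP accumulation was measured by HTRF (cAMP-d2/anti-cAMP cryptate, 1 h RT) read at 665/615 nm.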

[2] = biological target: T1, human calcitonin receptor (CTR) in COS-7 cells (Homo sapiens, UniProt P30988); assay: Calcitonin Receptor (CTR) cAMP Assay; type: cell-based; conditions: COS7-human CTR Clone #2 cells; read-out: Calcitonin Receptor cAMP Stimulation Activity: EC50
T1 construct: expressed in transfected cells; host or cells: COS-7 (COS7-human CTR Clone #2)
T1 sequence (P30988 25-474): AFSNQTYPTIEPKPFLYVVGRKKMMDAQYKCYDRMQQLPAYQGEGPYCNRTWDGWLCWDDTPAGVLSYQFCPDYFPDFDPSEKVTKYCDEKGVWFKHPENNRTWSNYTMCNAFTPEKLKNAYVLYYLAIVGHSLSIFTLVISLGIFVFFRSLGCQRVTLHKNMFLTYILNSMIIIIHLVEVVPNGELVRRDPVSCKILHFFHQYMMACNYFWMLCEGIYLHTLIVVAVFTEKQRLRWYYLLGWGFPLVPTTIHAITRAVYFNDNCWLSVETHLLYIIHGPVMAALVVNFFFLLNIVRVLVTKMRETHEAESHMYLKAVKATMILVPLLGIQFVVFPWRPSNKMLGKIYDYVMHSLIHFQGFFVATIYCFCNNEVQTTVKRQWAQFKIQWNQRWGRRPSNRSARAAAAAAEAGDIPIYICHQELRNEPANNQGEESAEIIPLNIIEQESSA
Description: Calcitonin Receptor (CTR) cAMP Assay
The calcitonin receptor (CTR) belongs to the subfamily of GPCRs known as the secretin or ‘B’ family of GPCRs. Like other class B1 GPCRs, the CT receptor family is canonically coupled to Gs-mediated cAMP production, and measurement of cAMP accumulation has been the primary assay used to determine peptide selectivity and potency.
To optimize functional activity directed toward Gas coupling, COS-7 cells were stably transfected with human calcitonin receptor (CTR) to create COS7-human CTR Clone #2 stable cell line. 100× concentration of compound working solutions were prepared with 4-fold serial dilution in 384-well Echo LDV plate (Labcyte, Cat #LP-0200-BC). 200 nL/well 100× concentration of compound working solutions were moved to 384-well white microplate (Perkin Elmer, Cat #6007680) using Labcyte ECHO550. 1×10^5 cells/mL COS7-human CTR Clone #2 cell suspensions prepared with assay buffer [HBSS containing 20 mM HEPES (Gibco, Cat #15630-080), 0.5 mM IBMX (Sigma, Cat #15879) and 0.1% Casein (Sigma, Cat #C4765)], 20 μL cell suspensions were added to each well of previous generated assay plate which already contains 200 nL compound at 100× concentration using ThermoFisher Multidrop Combi (2000 cells/well). Seal the plate and incubate at 37° C. with 5% CO2 for 30 min.
After incubation, the cAMP assay signal was generated using cAMP dynamic 2 kit (Revvity, Cat #62AM4PEC). 10 μL cAMP-d2 working solution was added to each well, followed by […] Anti-cAMP antibody-cryptate working solution which was added to each well using CERTUS FLEX LIQUID DISPENSER. The samples were then incubated at room temperature for 1 hour protected from light. the fluorescence was read at 665 and 615 nm with Reader PerkinElmer EnVision 2105.

Chain of human calcitonin receptor (CTR) and RAMP3 (AMY3) in COS-7 cells (O60896 24-148, one chain of several): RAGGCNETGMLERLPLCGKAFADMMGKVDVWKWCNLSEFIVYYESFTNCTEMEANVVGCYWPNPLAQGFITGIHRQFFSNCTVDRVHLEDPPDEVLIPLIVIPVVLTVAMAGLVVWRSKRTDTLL

Cc1nnc(-c2c(CCc3ccc(F)cc3)nc(CC(C)C)c(C(N)=O)c2-c2ccc(C(=O)N[C@@H]3CCc4ccccc43)s2)o1 [Compound 106, N—[(R)-1-indanyl]-5-{5-carbamoyl-2-[2-(p-fluorophenyl)ethyl]-6-isobutyl-3-(5-methyl-1,3,4-oxadiazol-2-yl)-4-pyridyl}-2-thenamide]
EC50 [1]: 4.1 nM | EC50 [2]: 2.1 nM

Cc1nnc(-c2c(CCc3ccc(F)cc3)nc(CC(C)C)c(C(N)=O)c2-c2ccc(C(=O)NCc3ccc(F)c(F)c3)s2)o1 [Compound 107, N-(3,4-difluorophenyl)methyl-5-{5-carbamoyl-2-[2-(p-fluorophenyl)ethyl]-6-isobutyl-3-(5-methyl-1,3,4-oxadiazol-2-yl)-4-pyridyl}-2-thenamide]
EC50 [1]: 6.6 nM | EC50 [2]: 1.6 nM

COc1cccc2c1CC[C@H]2NC(=O)c1ccc(-c2c(C(N)=O)c(CC(C)C)nc(CCc3ccc(F)cc3)c2-c2nnc(C)o2)s1 [Compound 122, (R)-6-(4-fluorophenethyl)-2-isobutyl-4-(5-((4-methoxy-2,3-dihydro-1H-inden-1-yl)carbamoyl)thiophen-2-yl)-5-(5-methyl-1,3,4-oxadiazol-2-yl)nicotinamide]
EC50 [1]: 0.8 nM | EC50 [2]: 0.73 nM

Cc1nnc(-c2c(CCc3ccc(F)cc3)nc(CC(C)C)c(C(N)=O)c2-c2cc3ccnc(NCc4ccc(F)c(F)c4)c3s2)o1 [Compound 131, 4-(7-{[(3,4-difluorophenyl)methyl]amino}-1-thia-6-aza-2-indenyl)-6-[2-(p-fluorophenyl)ethyl]-2-isobutyl-5-(5-methyl-1,3,4-oxadiazol-2-yl)nicotinamide]
EC50 [1]: 4.4 nM | EC50 [2]: 0.33 nM

COC1CCCN(c2nccc3cc(-c4c(C(N)=O)c(CC(C)C)nc(CCc5ccc(F)cc5)c4-c4nnc(C)o4)sc23)C1 (stereo not drawn) [Compound 135, 6-(4-fluorophenethyl)-2-isobutyl-4-(7-(3-methoxypiperidin-1-yl)thieno[2,3-c]pyridin-2-yl)-5-(5-methyl-1,3,4-oxadiazol-2-yl)nicotinamide]
EC50 [1]: > 1000 nM | EC50 [2]: 280 nM

Cc1nnc(-c2c(CC(F)c3ccc(F)cc3)nc(CC(C)C)c(C(N)=O)c2-c2ccc(C(=O)N[C@@H]3CCc4ccccc43)s2)o1 (stereo partly drawn) [Compound 187, 4-(5-(((R)-2,3-dihydro-1H-inden-1-yl)carbamoyl)thiophen-2-yl)-6-(2-fluoro-2-(4-fluorophenyl)ethyl)-2-isobutyl-5-(5-methyl-1,3,4-oxadiazol-2-yl)nicotinamide]
EC50 [1]: 99.3 nM

Cc1nnc(-c2c(CCC(F)F)nc(CC(C)C)c(C(N)=O)c2-c2ccc(C(=O)NCc3ccc(F)c(F)c3)s2)o1 [Compound 189, 4-(5-((3,4-difluorobenzyl)carbamoyl)thiophen-2-yl)-6-(3,3-difluoropropyl)-2-isobutyl-5-(5-methyl-1,3,4-oxadiazol-2-yl)nicotinamide]
EC50 [1]: > 1000 nM

Cc1nnc(-c2c(CC(C)c3ccc(F)cc3)nc(CC(C)C)c(C(N)=O)c2-c2ccc(C(=O)N[C@@H]3CCc4ncccc43)s2)o1 (stereo partly drawn) [Compound 191, 4-(5-(((R)-6,7-dihydro-5H-cyclopenta[b]pyridin-5-yl)carbamoyl)thiophen-2-yl)-6-(2-(4-fluorophenyl)propyl)-2-isobutyl-5-(5-methyl-1,3,4-oxadiazol-2-yl)nicotinamide]
EC50 [1]: 1080 nM

Cc1nnc(-c2c(CC3CC3(F)F)nc(CC(C)C)c(C(N)=O)c2-c2ccc(C(=O)NCc3ccc(F)c(F)c3)s2)o1 (stereo not drawn) [Compound 192, 4-(5-((3,4-difluorobenzyl)carbamoyl)thiophen-2-yl)-6-((2,2-difluorocyclopropyl)methyl)-2-isobutyl-5-(5-methyl-1,3,4-oxadiazol-2-yl)nicotinamide]
EC50 [1]: > 1000 nM

Cc1nnc(-c2c(CC3CC(F)(F)C3)nc(CC(C)C)c(C(N)=O)c2-c2ccc(C(=O)NCc3ccc(F)c(F)c3)s2)o1 [Compound 193, 4-(5-((3,4-difluorobenzyl)carbamoyl)thiophen-2-yl)-6-((3,3-difluorocyclobutyl)methyl)-2-isobutyl-5-(5-methyl-1,3,4-oxadiazol-2-yl)nicotinamide]
EC50 [1]: 3550 nM

Cc1nnc(-c2c(C34CC(C(F)(F)F)(C3)C4)nc(CC(C)C)c(C(N)=O)c2-c2ccc(C(=O)NCc3ccc(F)c(F)c3)s2)o1 [Compound 194, 4-(5-((3,4-difluorobenzyl)carbamoyl)thiophen-2-yl)-2-isobutyl-5-(5-methyl-1,3,4-oxadiazol-2-yl)-6-(3-(trifluoromethyl)bicyclo[1.1.1]pentan-1-yl)nicotinamide]
EC50 [1]: 3400 nM

Cc1ccc(CCc2nc(CC(C)C)c(C(N)=O)c(-c3ccc(C(=O)N[C@@H]4CCc5ncccc54)s3)c2-c2nnc(C)o2)nc1 [Compound 195, (R)-4-(5-((6,7-dihydro-5H-cyclopenta[b]pyridin-5-yl)carbamoyl)thiophen-2-yl)-2-isobutyl-5-(5-methyl-1,3,4-oxadiazol-2-yl)-6-(2-(5-methylpyridin-2-yl)ethyl)nicotinamide]
EC50 [1]: 39900 nM

Cc1nnc(-c2c(CCC3CCOCC3)nc(CC(C)C)c(C(N)=O)c2-c2cc3ccnc(N[C@@H]4CCc5ncccc54)c3s2)o1 [Compound 196, (R)-4-(7-((6,7-dihydro-5H-cyclopenta[b]pyridin-5-yl)amino)thieno[2,3-c]pyridin-2-yl)-2-isobutyl-5-(5-methyl-1,3,4-oxadiazol-2-yl)-6-(2-(tetrahydro-2H-pyran-4-yl)ethyl)nicotinamide]
EC50 [1]: 279 nM

COc1cccc2c1CC[C@H]2Nc1nccc2cc(-c3c(C(N)=O)c(CC(C)C)nc(CCC4CCOCC4)c3-c3ncc(C)o3)sc12 [Compound 198, (R)-2-isobutyl-4-(7-((4-methoxy-2,3-dihydro-1H-inden-1-yl)amino)thieno[2,3-c]pyridin-2-yl)-5-(5-methyloxazol-2-yl)-6-(2-(tetrahydro-2H-pyran-4-yl)ethyl)nicotinamide]
EC50 [1]: 229 nM

CCc1nc(CC(C)C)c(C(N)=O)c(-c2ccc(C(=O)NCc3ccc(F)c(F)c3)cc2)c1-c1nnc(C)o1 [Compound 199, 4-(4-((3,4-difluorobenzyl)carbamoyl)phenyl)-6-ethyl-2-isobutyl-5-(5-methyl-1,3,4-oxadiazol-2-yl)nicotinamide]
EC50 [1]: > 1000 nM

Cc1nnc(-c2c(CCc3ccc(F)cc3)nc(CC(C)C)c(C(N)=O)c2-c2cc3ccnc(NCc4ccccn4)c3s2)o1 [Compound 200, 6-(4-fluorophenethyl)-2-isobutyl-5-(5-methyl-1,3,4-oxadiazol-2-yl)-4-(7-((pyridin-2-ylmethyl)amino)thieno[2,3-c]pyridin-2-yl)nicotinamide]
EC50 [1]: 273 nM

Cc1nnc(-c2c(CCc3ccc(F)cc3)nc(CC(C)C)c(C(N)=O)c2-c2cc3ccnc(NCc4cccnc4)c3s2)o1 [Compound 201, 6-(4-fluorophenethyl)-2-isobutyl-5-(5-methyl-1,3,4-oxadiazol-2-yl)-4-(7-((pyridin-3-ylmethyl)amino)thieno[2,3-c]pyridin-2-yl)nicotinamide]
EC50 [1]: 381 nM

Cc1nnc(-c2c(CCc3ccc(F)cc3)nc(CC(C)C)c(C(N)=O)c2-c2cc3ccnc(NCc4ccncc4)c3s2)o1 [Compound 202, 6-(4-fluorophenethyl)-2-isobutyl-5-(5-methyl-1,3,4-oxadiazol-2-yl)-4-(7-((pyridin-4-ylmethyl)amino)thieno[2,3-c]pyridin-2-yl)nicotinamide]
EC50 [1]: 242 nM

CC(C)Cc1nc(CCc2ccc(F)cc2)c(-c2ccn(C)n2)c(-c2ccc(C(=O)NCc3ccc(F)c(F)c3)s2)c1C(N)=O [Compound 204, 4-(5-((3,4-difluorobenzyl)carbamoyl)thiophen-2-yl)-6-(4-fluorophenethyl)-2-isobutyl-5-(1-methyl-1H-pyrazol-3-yl)nicotinamide]
EC50 [1]: 67.3 nM
